Data on 25 compounds can be found in patent US10662193B2, “Carbazole and carboline compounds for use in the diagnosis, treatment, alleviation or prevention of disorders associated with amyloid or amyloid-like proteins” (AC IMMUNE SA, priority 2014, dated 2020).

This experiment deals with tau tangles/Aβ plaques on AD brain sections. The experiment can be described thus: Assay 1: direct staining of human Alzheimer's disease brain sections (fluorescence). The class given is binding. Further details: key to Direct staining of tau tangles/Aβ plaques on AD brain sections at 100 μM / Direct staining of tau tangles on AD brain sections at 100 μM / Direct staining of Aβ plaques on AD brain sections at 100 μM / Direct staining of tau tangles on AD brain sections (footnote a: at 250 μM): − (No); +++ (strong); ++ (good); + (weak). The conditions noted are these: 100 μM compound; for Direct staining of tau tangles/Aβ plaques on AD brain sections at 100 μM: human AD brain sections, fluorescence, cell does not say tangles or plaques. As to the method:
Assay 1 (Fluorescence Based Assay):
Direct Binding of Compounds of this Invention to Human Alzheimer's Disease Brain Sections and/or Displacement of RefA and Compound B
Frozen sections with a thickness of […] from the amygdala of donors diagnosed with Braak stage V-VI Alzheimer's Disease (Braak, H.; Braak, E. Acta Neuropathol., 1991, 82, 239-259), were purchased from a commercial provider (Tissue Solutions) and kept at −80° C. until use.
Direct Staining of Human Alzheimer's Disease Brain Sections
Brain sections were encircled with pap pen liquid blocker to reduce the volume of solution for the different incubations. Sections were fixed for 15 min at 4° C. with 4% paraformaldehyde and washed three times 5 minutes with PBS at room temperature. […] To reduce the auto-fluorescence of the tissue, the sections were incubated in a solution of 0.1% Sudan Black (Sigma 199664) in 70% ethanol for 15 min at room temperature in the dark, washed four times for 5 minutes with PBS, and mounted using ProLong Gold Antifade reagent (Invitrogen P36930). Sections were then analyzed on the Nikon Eclipse Ti microscope to detect staining and imaged using Nikon DS-Fi2 camera and NIS-Element AR4.13.1 software.

`Cn1c2c(c3ccc(Nc4cccc(OCCF)c4)nc31)C(=O)NCC2` [Example 178]: the “Direct staining of tau tangles/Aβ plaques on AD brain sections at 100 μM” value is recorded as “−”. Turning to `Cn1c2c(c3ccc(Nc4ccc(C#N)c(F)c4)nc31)C(=O)NCC2` [Example 179], the “Direct staining of tau tangles on AD brain sections at 100 μM” value is “+ (tangles)”. On to `COc1cc(Nc2ccc3c4c(n(C)c3n2)CCNC4=O)ccc1F` [Example 180], for which the “Direct staining of tau tangles/Aβ plaques on AD brain sections at 100 μM” value is “−”. Turning to `COc1cc(Nc2ccc3c4c(n(C)c3n2)CCNC4=O)ccn1` [Example 181], the “Direct staining of tau tangles on AD brain sections at 100 μM” value was “+ (tangles)”. Turning to `CN1CCc2c(c3ccc(Nc4ccc(F)nc4)nc3n2C)C1=O` [Example 182], the “Direct staining of tau tangles/Aβ plaques on AD brain sections at 100 μM” value is given as “−”. Turning to `Cn1c2c(c3ccc(Nc4ccc(F)c(F)c4)nc31)C(=O)N(CCF)CC2` [Example 183], the “Direct staining of Aβ plaques on AD brain sections at 100 μM” value (“Direct staining of Aβ plaques” for short) is “+ (plaques)”. Same read-out and setting: the entry for `Cn1c2c(c3ccc(Nc4cccc(F)n4)nc31)C(=O)NCC2` [Example 184] is “+ (plaques)”. `CN1CCc2c(c3ccc(Nc4cccc(F)n4)nc3n2C)C1=O` [Example 185]: the “Direct staining of Aβ plaques” value is listed as “+ (plaques)”. Same read-out and setting: the entry for `Cn1c2c(c3ccc(Nc4cnn(CCF)c4)nc31)C(=O)NCC2` [Example 186] is “+ (plaques)”. For the compound `Cn1c2c(c3ccc(Nc4ccc(C#N)c(F)c4)nc31)C(=O)N(CCF)CC2` [Example 187], the “Direct staining of tau tangles on AD brain sections at 100 μM” value was “+ (tangles)”. In the case of `Cn1c2c(c3ccc(Nc4ccc5nsnc5c4)nc31)C(=O)N(CCF)CC2` [Example 188], the “Direct staining of tau tangles/Aβ plaques on AD brain sections at 100 μM” value is “−”. Same read-out and setting: the entry for `CN1CCc2c(c3ccc(Nc4ccn(CCF)n4)nc3n2C)C1=O` [Example 190] is “−”; for `CN1CCc2c(c3ccc(Nc4cnn(CCCF)c4)nc3n2C)C1=O` [Example 191] it is “−”; for `Cn1c2cc[nH]c(=O)c2c2ccc(Nc3cccc(OC(F)F)c3)nc21` [Example 193] it is “−”.

`Cn1ccc2c(c1=O)c1ccc(Nc3ccc(F)c(F)c3)nc1n2C` [Example 194]: the “Direct staining of tau tangles/Aβ plaques on AD brain sections at 100 μM” value is on record as “−”. On the same count and under the same terms, for `CN1CCc2c(c3ccc(N4CCC[C@@H](F)C4)nc3n2C)C1=O` [Example 196] the value was “−”; for `CN1CCc2c(c3ccc(Nc4ccc(OCCF)c(F)c4)nc3n2C)C1=O` [Example 198], “−”. With `Cn1c2c(c3ccc(Nc4ccc(OCCF)c(F)c4)nc31)C(=O)NCC2` [Example 199], the “Direct staining of Aβ plaques” value was “+ (tangles) + (plaques)” and the “Direct staining of tau tangles on AD brain sections at 100 μM” value was “+ (tangles) + (plaques)”.

As for `CN1CCc2c(c3ccc(Nc4ccc(F)c(OCCF)c4)nc3n2C)C1=O` [Example 200], the “Direct staining of Aβ plaques” value was “+ (tangles) + (plaques)” and the “Direct staining of tau tangles on AD brain sections at 100 μM” value is on record as “+ (tangles) + (plaques)”.

For `CN1CCc2c(c3ccc(Nc4ccc(O)c(F)c4)nc3n2C)C1=O` [Example 202], the “Direct staining of tau tangles/Aβ plaques on AD brain sections at 100 μM” value is “−”.

`CN1CCc2c(c3ccc(Nc4ccc(F)c(O)c4)nc3n2C)C1=O` [Example 203]: the “Direct staining of tau tangles/Aβ plaques on AD brain sections at 100 μM” value is “−”.

For the compound `CN1CCc2c(c3ccc(Nc4ccnc(OCCF)c4)nc3n2C)C1=O` [Example 204], the “Direct staining of tau tangles/Aβ plaques on AD brain sections at 100 μM” value is “−”.

Consider `Cn1c2c(c3ccc(Nc4ccnc(OCCF)c4)nc31)C(=O)NCC2` [Example 205], for which the “Direct staining of tau tangles/Aβ plaques on AD brain sections at 100 μM” value is recorded as “−”. The same measure, in the same setting: for `CN1CCc2c(c3ccc(Nc4ccc(OCCF)cn4)nc3n2C)C1=O` [Example 206] the value was “−”; for `Cn1c2c(c3ccc(Nc4ccc(OCCF)cn4)nc31)C(=O)NCC2` [Example 207], “−”.
